How the values were obtained:
[1] = system: Alternaria solani; test: Alternaria solani / tomato / leaf disc (early blight); type: in vivo; settings: foliar, tomato leaf disks cv. Baby, inoculated 2 days after application, assessed 5-7 days after application, compared to untreated control
Protocol: Example B1: Alternaria solani/Tomato/Leaf Disc (Early Blight) Tomato leaf disks cv. Baby are placed on agar in multiwell plates (24-well format) and sprayed with the formulated test compound diluted in water. The leaf disks are inoculated with a spore suspension of the fungus 2 days after application. The inoculated leaf disks are incubated at 23° C./21° C.

[2] = system: Botryotinia fuckeliana (Botrytis cinerea); test: Botryotinia fuckeliana (Botrytis cinerea) / liquid culture (gray mould); type: cell-based; settings: liquid culture (Vogels broth), growth inhibition photometrically 3-4 days after application, compared to untreated control
Protocol: (§1) Example B2: Botryotinia fuckeliana (Botrytis cinerea)/Liquid Culture (Gray Mould) Conidia of the fungus from cryogenic storage are directly mixed into a nutrient broth (Vogels broth). After placing a DMSO solution of test compound into a microtiter plate (96-well format), the nutrient broth containing the fungal spores is added. The test plates are incubated at 24° C. and the inhibition of growth is determined photometrically 3-4 days after application.

[3] = system: Glomerella lagenarium (Colletotrichum lagenarium); test: Glomerella lagenarium (Colletotrichum lagenarium) / liquid culture (anthracnose); type: cell-based; settings: Colletotrichum orbiculare, liquid culture (potato dextrose broth), growth inhibition photometrically 3-4 days after application, compared to untreated control
Protocol: as §1, with “B3: Glomerella lagenarium (Colletotrichum lagenarium)/Liquid” for “B2: Botryotinia fuckeliana (Botrytis cinerea)/Liquid”, “(Anthracnose)” for “(Gray Mould)”, “(potato dextrose” for “(Vogels”, “measured” for “determined”

[4] = system: Blumeria graminis f. sp. tritici (Erysiphe graminis f. sp. tritici); test: Blumeria graminis f. sp. tritici / wheat / leaf disc preventative (powdery mildew); type: in vivo; settings: foliar, wheat leaf segments cv. Kanzler, inoculated 1 day after application, assessed 6-8 days after application, compared to untreated control
Protocol: Example B4: Blumeria graminis f. sp. tritici (Erysiphe graminis f. sp. tritici)/Wheat/Leaf Disc Preventative (Powdery Mildew on Wheat) Wheat leaf segments cv. Kanzler are placed on agar in a multiwell plate (24-well format) and sprayed with the formulated test compound diluted in water. The leaf disks are inoculated by shaking powdery mildew infected plants above the test plates 1 day after application. The inoculated leaf disks are incubated at 20° C. and 60% relative humidity under a light regime of 24 h darkness followed by 12 h light/12 h darkness in a climate chamber and the activity of a compound is assessed as percent disease control compared to untreated when an appropriate level of disease damage appears on untreated check leaf segments (6-8 days after application).

[5] = system: Fusarium culmorum; test: microbe, parasite or virus in culture; type: cell-based; settings: read-out: control of Fusarium culmorum
[6] = system: Phaeosphaeria nodorum (Septoria nodorum); test: Phaeosphaeria nodorum (Septoria nodorum) / wheat / leaf disc preventative (glume blotch); type: in vivo; settings: Parastagonospora nodorum, foliar, wheat leaf segments cv. Kanzler, inoculated 2 days after application, assessed 5-7 days after application, compared to untreated control
Protocol: Example B8: Phaeosphaeria Nodorum (Septoria nodorum)/Wheat/Leaf Disc Preventative (Glume Blotch) Wheat leaf segments cv. Kanzler are placed on agar in a multiwell plate (24-well format) and sprayed with the formulated test compound diluted in water. The leaf disks are inoculated with a spore suspension of the fungus 2 days after application. The inoculated test leaf disks are incubated at 20° C. and 75% relative humidity under a light regime of 12 h light/12 h darkness in a climate cabinet and the activity of a compound is assessed as percent disease control compared to untreated when an appropriate level of disease damage appears in untreated check leaf disks (5-7 days after application).

[7] = system: Monographella nivalis (Microdochium nivale); test: Monographella nivalis (Microdochium nivale) / liquid culture (foot rot cereals); type: cell-based; settings: liquid culture (potato dextrose broth), growth inhibition photometrically 4-5 days after application, compared to untreated control
Protocol: as §1, with “B9: Monographella nivalis (Microdochium nivale)/Liquid” for “B2: Botryotinia fuckeliana (Botrytis cinerea)/Liquid”, “(Foot Rot Cereals)” for “(Gray Mould)”, “(potato dextrose” for “(Vogels”, “4-5” for “3-4”

[8] = system: Pyrenophora teres; test: Pyrenophora teres / barley / leaf disc preventative (net blotch); type: in vivo; settings: foliar, barley leaf segments cv. Hasso, inoculated 2 days after application, assessed 5-7 days after application, compared to untreated control
Protocol: Example B12: Pyrenophora teres/Barley/Leaf Disc Preventative (Net Blotch) Barley leaf segments cv. Hasso are placed on agar in a multiwell plate (24-well format) and sprayed with the formulated test compound diluted in water. The leaf segments are inoculated with a spore suspension of the fungus 2 days after application. The inoculated leaf segments are incubated at 20° C. and 65% relative humidity under a light regime of 12 h light/12 h darkness in a climate cabinet and the activity of a compound is assessed as disease control compared to untreated when an appropriate level of disease damage appears in untreated check leaf segments (5-7 days after application).

[9] = system: Sclerotinia sclerotiorum; test: Sclerotinia sclerotiorum / liquid culture (cottony rot); type: cell-based; settings: liquid culture (potato dextrose broth), growth inhibition photometrically 3-4 days after application, compared to untreated control
Protocol: Example B14: Sclerotinia sclerotiorum/Liquid Culture (Cottony Rot) Mycelia fragments of a newly grown liquid culture of the fungus are directly mixed into a nutrient broth (potato dextrose broth). After placing a DMSO solution of test compound into a microtiter plate (96-well format) the nutrient broth containing the fungal material is added. The test plates are incubated at 24° C. and the inhibition of growth is determined photometrically 3-4 days after application.

[10] = system: Mycosphaerella graminicola (Septoria tritici); test: Mycosphaerella graminicola (Septoria tritici) / liquid culture (Septoria blotch); type: cell-based; settings: Zymoseptoria tritici, liquid culture (potato dextrose broth), growth inhibition photometrically 4-5 days after application, compared to untreated control
Protocol: as §1, with “B15: Mycosphaerella graminicola (Septoria tritici/Liquid” for “B2: Botryotinia fuckeliana (Botrytis cinerea)/Liquid”, “(Septoria Blotch)” for “(Gray Mould)”, “(potato dextrose” for “(Vogels”, “4-5” for “3-4”

[11] = system: Mycosphaerella arachidis (Cercospora arachidicola); test: Mycosphaerella arachidis (Cercospora arachidicola) / liquid culture (early leaf spot); type: cell-based; settings: liquid culture (potato dextrose broth), growth inhibition photometrically 4-5 days after application, compared to untreated control
Protocol: as §1, with “B10: Mycosphaerella arachidis (Cercospora arachidicola)/Liquid” for “B2: Botryotinia fuckeliana (Botrytis cinerea)/Liquid”, “(Early Leaf Spot)” for “(Gray Mould)”, “(potato dextrose broth)” for “(Vogels broth).”, “4-5” for “3-4”

Cc1c(C2CN(C(=O)c3nnc(-c4ccc(F)cc4F)s3)Cc3sccc32)cnn1C (stereo not shown) [Compound P-25, [5-(2,4-difluorophenyl)-1,3,4-thiadiazol-2-yl]-[4-(1,5-dimethylpyrazol-4-yl)-5,7-dihydro-4H-thieno[2,3-c]pyridin-6-yl]methanone]
≥ 80%: pest or weed control at 200 ppm [1] | inhibition of growth at 20 ppm [2] | inhibition of growth at 20 ppm [3] | pest or weed control at 200 ppm [4] | inhibition of growth at 20 ppm [5] | pest or weed control at 200 ppm [6] | inhibition of growth at 20 ppm [7] | pest or weed control at 200 ppm [8] | inhibition of growth at 20 ppm [9] | inhibition of growth at 20 ppm [10]

C[C@H]1c2sccc2[C@@](C)(c2cnn(C)c2)CN1C(=O)c1nnc(-c2ccc(F)cc2F)s1 (racemic) [Compound P-10, [5-(2,4-difluorophenyl)-1,3,4-thiadiazol-2-yl]-[rac-(4S,7R)-4,7-dimethyl-4-(1-methylpyrazol-4-yl)-5,7-dihydrothieno[2,3-c]pyridin-6-yl]methanone]
≥ 80%: pest or weed control at 200 ppm [1] | inhibition of growth at 20 ppm [2] | inhibition of growth at 20 ppm [3] | inhibition of growth at 20 ppm [5] | pest or weed control at 200 ppm [6] | inhibition of growth at 20 ppm [7] | inhibition of growth at 20 ppm [11] | inhibition of growth at 20 ppm [9] | inhibition of growth at 20 ppm [10]

Cc1c(C2CN(C(=O)c3cc(-c4ccccc4F)on3)Cc3ccsc32)cnn1C (stereo not shown) [Compound P-34, [7-(1,5-dimethylpyrazol-4-yl)-6,7-dihydro-4H-thieno[3,2-c]pyridin-5-yl]-[5-(2-fluorophenyl)isoxazol-3-yl]methanone]
≥ 80%: pest or weed control at 200 ppm [1] | inhibition of growth at 20 ppm [2] | inhibition of growth at 20 ppm [3] | inhibition of growth at 20 ppm [5] | pest or weed control at 200 ppm [6] | inhibition of growth at 20 ppm [7] | inhibition of growth at 20 ppm [11] | pest or weed control at 200 ppm [8] | inhibition of growth at 20 ppm [9] | inhibition of growth at 20 ppm [10]

C[C@H]1c2sccc2[C@@H](c2cnn(C)c2)CN1C(=O)c1nnc(-c2ccc(F)cc2F)s1 (racemic) [Compound P-15, [5-(2,4-difluorophenyl)-1,3,4-thiadiazol-2-yl]-[rac-(4R,7S)-7-methyl-4-(1-methylpyrazol-4-yl)-5,7-dihydro-4H-thieno[2,3-c]pyridin-6-yl]methanone]
≥ 80%: pest or weed control at 200 ppm [1] | inhibition of growth at 20 ppm [2] | inhibition of growth at 20 ppm [3] | pest or weed control at 200 ppm [4] | inhibition of growth at 20 ppm [5] | pest or weed control at 200 ppm [6] | inhibition of growth at 20 ppm [11] | pest or weed control at 200 ppm [8] | inhibition of growth at 20 ppm [10]

Cc1c(C2CN(C(=O)c3nnc(-c4ccc(F)cc4F)s3)Cc3ccsc32)cnn1C (stereo not shown) [Compound P-7, [5-(2,4-difluorophenyl)-1,3,4-thiadiazol-2-yl]-[7-(1,5-dimethylpyrazol-4-yl)-6,7-dihydro-4H-thieno[3,2-c]pyridin-5-yl]methanone]
≥ 80%: inhibition of growth at 20 ppm [2] | inhibition of growth at 20 ppm [3] | pest or weed control at 200 ppm [4] | inhibition of growth at 20 ppm [5] | inhibition of growth at 20 ppm [7] | inhibition of growth at 20 ppm [11] | inhibition of growth at 20 ppm [9] | inhibition of growth at 20 ppm [10]

Cn1cc(C2(C)CN(C(=O)c3cc(-c4ccc(F)cc4F)on3)Cc3sccc32)cn1 (stereo not shown) [Compound P-19, [5-(2,4-difluorophenyl)isoxazol-3-yl]-[4-methyl-4-(1-methylpyrazol-4-yl)-5,7-dihydrothieno[2,3-c]pyridin-6-yl]methanone]
≥ 80%: pest or weed control at 200 ppm [1] | inhibition of growth at 20 ppm [2] | inhibition of growth at 20 ppm [3] | pest or weed control at 200 ppm [4] | pest or weed control at 200 ppm [6] | inhibition of growth at 20 ppm [11] | pest or weed control at 200 ppm [8] | inhibition of growth at 20 ppm [9] | inhibition of growth at 20 ppm [10]

Cc1c([C@H]2CN(C(=O)c3cc(-c4ccc(F)cc4F)on3)Cc3ccsc32)cnn1C [Compound P-3, [5-(2,4-difluorophenyl)isoxazol-3-yl]-[(7S)-7-(1,5-dimethylpyrazol-4-yl)-6,7-dihydro-4H-thieno[3,2-c]pyridin-5-yl]methanone]
≥ 80%: pest or weed control at 200 ppm [1] | inhibition of growth at 20 ppm [2] | inhibition of growth at 20 ppm [3] | pest or weed control at 200 ppm [4] | inhibition of growth at 20 ppm [5] | pest or weed control at 200 ppm [6] | inhibition of growth at 20 ppm [7] | pest or weed control at 200 ppm [8] | inhibition of growth at 20 ppm [9] | inhibition of growth at 20 ppm [10]

Cn1cc(C2CN(C(=O)c3nnc(-c4ccc(F)cc4F)s3)Cc3sccc32)cn1 (stereo not shown) [Compound P-24, [5-(2,4-difluorophenyl)-1,3,4-thiadiazol-2-yl]-[4-(1-methylpyrazol-4-yl)-5,7-dihydro-4H-thieno[2,3-c]pyridin-6-yl]methanone]
≥ 80%: pest or weed control at 200 ppm [1] | inhibition of growth at 20 ppm [2] | inhibition of growth at 20 ppm [3] | inhibition of growth at 20 ppm [5] | pest or weed control at 200 ppm [6] | inhibition of growth at 20 ppm [7] | inhibition of growth at 20 ppm [11] | pest or weed control at 200 ppm [8] | inhibition of growth at 20 ppm [9] | inhibition of growth at 20 ppm [10]

C[C@H]1c2sccc2[C@@H](c2cnn(C)c2)CN1C(=O)c1cc(-c2ccc(F)cc2F)on1 (racemic) [Compound P-14, [5-(2,4-difluorophenyl)isoxazol-3-yl]-[rac-(4R,7S)-7-methyl-4-(1-methylpyrazol-4-yl)-5,7-dihydro-4H-thieno[2,3-c]pyridin-6-yl]methanone]
≥ 80%: pest or weed control at 200 ppm [1] | inhibition of growth at 20 ppm [2] | inhibition of growth at 20 ppm [3] | pest or weed control at 200 ppm [4] | inhibition of growth at 20 ppm [5] | pest or weed control at 200 ppm [6] | inhibition of growth at 20 ppm [11] | pest or weed control at 200 ppm [8] | inhibition of growth at 20 ppm [9] | inhibition of growth at 20 ppm [10]

From patent publication US20250049035A1, “MICROBIOCIDAL BICYCLE HETEROCYCLIC DERIVATIVES” (SYNGENTA CROP PROTECTION AG, priority 2021, published 2025)
